For one assay, the system named is Cryptococcus neoformans. Kind of assay: Antifungal activity against Cryptococcus neoformans Cr-1 strain. Format: functional.
For a further assay, the system named is Aspergillus fumigatus. The assay can be described thus: Antifungal activity against Aspergillus fumigatus Saito strain. Format: functional.
In the next assay the test system is Trichophyton benhamiae. Kind of assay: Antifungal activity towards Trichophyton mentagrophytes 530324 strain. Format: functional, Arthroderma benhamiae.
Another assay relates to Candida albicans. Kind of assay: Antifungal activity against Candida albicans C-A-24 strain. Format: functional.
Assay [1] has as its system Trichophyton interdigitale. Kind of assay: Antifungal activity towards Trichophyton interdigitale. Format: functional.

Values after ≈ are worked out from the molar mass of the structure shown.

For the molecule `COc1ccc(-c2nnn(CC(I)=C(I)I)n2)cc1`, the MIC – broadly, the least concentration at which growth counts as inhibited – against Cryptococcus neoformans is over 100 µg/mL; against Aspergillus fumigatus, 25 µg/mL (≈ 42.1 µM); in the assay with Trichophyton benhamiae, 25 µg/mL (≈ 42.1 µM); against Candida albicans, over 100 µg/mL; in assay [1] it was over 100 µg/mL.
As for `COc1ccc(Cl)cc1C(=O)c1cccn1CC(I)=C(I)I`, the minimum inhibitory concentration (MIC) in the assay on Cryptococcus neoformans stood at 25 µg/mL (≈ 38.3 µM); in the assay on Aspergillus fumigatus, 25 µg/mL (≈ 38.3 µM); with Trichophyton benhamiae, 12.5 µg/mL (≈ 19.1 µM); in the assay with Candida albicans it was 25 µg/mL (≈ 38.3 µM); in assay [1], 12.5 µg/mL (≈ 19.1 µM).
As for `Clc1cccc(-c2nnn(CC#CI)n2)c1`, the MIC against Cryptococcus neoformans was 0.39 µg/mL (≈ 1.13 µM); in the assay on Aspergillus fumigatus, 0.78 µg/mL (≈ 2.26 µM); in the assay on Trichophyton benhamiae, 0.1 µg/mL (≈ 0.29 µM); against Candida albicans it was 0.78 µg/mL (≈ 2.26 µM); in assay [1], 0.1 µg/mL (≈ 0.29 µM).
Take `IC#CCn1ccnc1`: the MIC came out at 6.25 µg/mL (≈ 26.9 µM) with Cryptococcus neoformans; 12.5 µg/mL (≈ 53.9 µM) against Aspergillus fumigatus; 6.25 µg/mL (≈ 26.9 µM) against Trichophyton benhamiae; 12.5 µg/mL (≈ 53.9 µM) with Candida albicans; 6.25 µg/mL (≈ 26.9 µM) in assay [1].
Turning to `NC(=O)c1ccc(-c2nnn(CC#CI)n2)cc1`, the MIC in the assay with Cryptococcus neoformans is 12.5 µg/mL (≈ 35.4 µM); against Aspergillus fumigatus it was over 100 µg/mL; in the assay on Trichophyton benhamiae, 6.25 µg/mL (≈ 17.7 µM); against Candida albicans it was over 100 µg/mL; in assay [1], 3.13 µg/mL (≈ 8.86 µM).
On to `O=[N+]([O-])c1ncnn1CC#CI`, for which the MIC came out at 0.78 µg/mL (≈ 2.81 µM) in the assay on Cryptococcus neoformans; 0.39 µg/mL (≈ 1.4 µM) against Aspergillus fumigatus; 0.39 µg/mL (≈ 1.4 µM) against Trichophyton benhamiae; 3.13 µg/mL (≈ 11.3 µM) in the assay on Candida albicans; 0.78 µg/mL (≈ 2.81 µM) in assay [1].
Take `O=[N+]([O-])c1cccn1CC#CI`: the MIC amounted to 0.39 µg/mL (≈ 1.41 µM) against Cryptococcus neoformans; 0.39 µg/mL (≈ 1.41 µM) against Aspergillus fumigatus; 0.1 µg/mL (≈ 0.362 µM) in the assay with Trichophyton benhamiae; 0.78 µg/mL (≈ 2.83 µM) with Candida albicans; 0.39 µg/mL (≈ 1.41 µM) in assay [1].
For the molecule `IC#CCn1cccn1`, the MIC against Cryptococcus neoformans stood at 0.78 µg/mL (≈ 3.36 µM); in the assay with Aspergillus fumigatus, 0.78 µg/mL (≈ 3.36 µM); in the assay with Trichophyton benhamiae, 0.39 µg/mL (≈ 1.68 µM); against Candida albicans, 3.13 µg/mL (≈ 13.5 µM); in assay [1] it was 0.39 µg/mL (≈ 1.68 µM).
For the molecule `CC(C)c1nnn(CC#CI)n1`, the MIC against Cryptococcus neoformans was 3.13 µg/mL (≈ 11.3 µM); with Aspergillus fumigatus it was 0.78 µg/mL (≈ 2.83 µM); with Trichophyton benhamiae, 0.78 µg/mL (≈ 2.83 µM); in the assay with Candida albicans, 1.56 µg/mL (≈ 5.65 µM); in assay [1], 0.78 µg/mL (≈ 2.83 µM).
As to `Cc1ccnn1CC#CI`, the MIC against Cryptococcus neoformans stood at 1.56 µg/mL (≈ 6.34 µM); in the assay with Aspergillus fumigatus, 0.78 µg/mL (≈ 3.17 µM); in the assay with Trichophyton benhamiae, 0.39 µg/mL (≈ 1.59 µM); in the assay on Candida albicans, 6.25 µg/mL (≈ 25.4 µM); in assay [1], 0.78 µg/mL (≈ 3.17 µM).
As to `O=[N+]([O-])c1ccc(-c2nnn(CC#CI)n2)cc1`, the MIC is 3.13 µg/mL (≈ 8.81 µM) against Cryptococcus neoformans; 6.25 µg/mL (≈ 17.6 µM) against Aspergillus fumigatus; 0.2 µg/mL (≈ 0.563 µM) in the assay with Trichophyton benhamiae; 25 µg/mL (≈ 70.4 µM) against Candida albicans; 0.39 µg/mL (≈ 1.1 µM) in assay [1].
The corresponding values for `O=[N+]([O-])c1c(Cl)c(Cl)n(CC(I)=C(I)I)c1Cc1cc(Cl)cc(Cl)c1O` are over 25 µg/mL, over 25 µg/mL, 25 µg/mL (≈ 32.3 µM), over 25 µg/mL and 25 µg/mL (≈ 32.3 µM).
The corresponding values for `CCCc1nnnn1CC#CI` are 3.13 µg/mL (≈ 11.3 µM), 3.13 µg/mL (≈ 11.3 µM), 0.78 µg/mL (≈ 2.83 µM), 6.25 µg/mL (≈ 22.6 µM) and 1.56 µg/mL (≈ 5.65 µM).
For `IC#CCn1ccnn1` the same measures were 1.56 µg/mL (≈ 6.69 µM), 0.78 µg/mL (≈ 3.35 µM), 0.78 µg/mL (≈ 3.35 µM), 3.13 µg/mL (≈ 13.4 µM) and 0.78 µg/mL (≈ 3.35 µM).
As to `CC(=O)c1c(C)cn(CC#CI)c1C`, the MIC worked out at 25 µg/mL (≈ 83 µM) in the assay on Cryptococcus neoformans; 3.13 µg/mL (≈ 10.4 µM) in the assay with Aspergillus fumigatus; 1.56 µg/mL (≈ 5.18 µM) in the assay on Trichophyton benhamiae; 25 µg/mL (≈ 83 µM) in the assay on Candida albicans; 6.25 µg/mL (≈ 20.8 µM) in assay [1].
In the case of `Clc1cc(Cl)cc(-c2nnn(CC#CI)n2)c1`, the MIC was determined as 0.39 µg/mL (≈ 1.03 µM) with Cryptococcus neoformans; 1.56 µg/mL (≈ 4.12 µM) against Aspergillus fumigatus; 0.1 µg/mL (≈ 0.264 µM) against Trichophyton benhamiae; 1.56 µg/mL (≈ 4.12 µM) in the assay with Candida albicans; 0.1 µg/mL (≈ 0.264 µM) in assay [1].
Take `Cc1cncn1CC(I)=C(I)I`: the MIC amounted to 12.5 µg/mL (≈ 25 µM) against Cryptococcus neoformans; 3.13 µg/mL (≈ 6.26 µM) against Aspergillus fumigatus; 1.56 µg/mL (≈ 3.12 µM) in the assay on Trichophyton benhamiae; 12.5 µg/mL (≈ 25 µM) with Candida albicans; 1.56 µg/mL (≈ 3.12 µM) in assay [1].
As for `O=[N+]([O-])c1cn(CC#CI)c(Cl)c1Cl`, the MIC in the assay with Cryptococcus neoformans was found to be 1.56 µg/mL (≈ 4.52 µM); against Aspergillus fumigatus, 0.39 µg/mL (≈ 1.13 µM); in the assay with Trichophyton benhamiae it was 0.1 µg/mL (≈ 0.29 µM); in the assay with Candida albicans, 0.78 µg/mL (≈ 2.26 µM); in assay [1] it was 0.39 µg/mL (≈ 1.13 µM).
For `O=[N+]([O-])c1c[nH]c(Cl)c1Cl`, the MIC against Cryptococcus neoformans was 25 µg/mL (≈ 138 µM); in the assay on Aspergillus fumigatus it was 25 µg/mL (≈ 138 µM); against Trichophyton benhamiae it was 6.25 µg/mL (≈ 34.5 µM); in the assay on Candida albicans, 100 µg/mL (≈ 553 µM); in assay [1], 3.13 µg/mL (≈ 17.3 µM).
As for `Cc1nnn(CC#CI)n1`, the MIC stood at 0.78 µg/mL (≈ 3.14 µM) against Cryptococcus neoformans; 0.78 µg/mL (≈ 3.14 µM) in the assay with Aspergillus fumigatus; 0.78 µg/mL (≈ 3.14 µM) against Trichophyton benhamiae; 1.56 µg/mL (≈ 6.29 µM) with Candida albicans; 0.78 µg/mL (≈ 3.14 µM) in assay [1].
Consider `O=C(c1ccccc1)c1cccn1CC(I)=C(I)I`, for which the MIC against Cryptococcus neoformans is 6.25 µg/mL (≈ 10.6 µM); against Aspergillus fumigatus, 6.25 µg/mL (≈ 10.6 µM); against Trichophyton benhamiae, 1.56 µg/mL (≈ 2.65 µM); against Candida albicans it was 6.25 µg/mL (≈ 10.6 µM); in assay [1], 3.13 µg/mL (≈ 5.31 µM).
On to `CC(C)(C)c1nnnn1CC#CI`, for which the MIC with Cryptococcus neoformans came to 25 µg/mL (≈ 86.2 µM); in the assay on Aspergillus fumigatus it was 6.25 µg/mL (≈ 21.5 µM); against Trichophyton benhamiae, 3.13 µg/mL (≈ 10.8 µM); in the assay with Candida albicans, 12.5 µg/mL (≈ 43.1 µM); in assay [1], 0.78 µg/mL (≈ 2.69 µM).

The values above are taken from ChEMBL document CHEMBL1123701, “Synthesis and quantitative structure-activity relationship analysis of N-triiodoallyl- and N-iodopropargylazoles. New antifungal agents” (1987).
